The results in this text go back to ChEMBL document CHEMBL5154884, “Discovery of a Novel Src Homology-2 Domain Containing Protein Tyrosine Phosphatase-2 (SHP2) and Cyclin-Dependent Kinase 4 (CDK4) Dual Inhibitor for the Treatment of Triple-Negative Breast Cancer” (J Med Chem, 2022).

Series [1] has as its system MDA-MB-231. As to the kind of experiment: Induction of apoptosis in human MDA-MB-231 cells assessed as necrotic cells at 1 uM measured after 48 hrs by Annexin V-FITC/PI staining based flow cytometric analysis (reference value: 0.58%). In kind it is functional. (In general: A flow cytometer gives signals particle by particle.)
The test system of series [2] is MDA-MB-231. Briefly: Induction of apoptosis in human MDA-MB-231 cells assessed as viable cells at 3 uM measured after 48 hrs by Annexin V-FITC/PI staining based flow cytometric analysis (reference value: 98.04%). It counts as functional. The settings on record: read-out: Activity.
Series [3] is described as follows: Toxicity in BALB/c nude mouse implanted with mouse EMT6 cells assessed as body weight loss at 40 mg/kg, po qd and measured every 2 days for 18 days. In kind it is organism-based. The settings on record: in vivo, 432 h, time 18 day.
Series [4] concerns EMT6. As to the kind of experiment: Antitumor activity against mouse EMT6 cells implanted in BALB/c mouse syngenic model assessed as increase in infiltration of CD8 positive T cells into tumors at 20 mg/kg, po bid measured after 18 days by immunohistochemical analysis. In kind it is functional, organism-based. The settings on record: time 18.0 day.

Structures are written as SMILES. The source made the active and inactive calls. The calls are words filed in the database; no cut-off is given here.

`Cc1nc2c(F)cc(-c3nc(Nc4nccc(Sc5cnc(N6CCC7(CC6)CO[C@@H](C)[C@H]7N)cn5)c4Cl)ncc3F)cc2n1C(C)C`: the Activity is 1.16% in series [1] and “Non-Toxic” in series [3]. Further, the viability at 3 µM in series [2] was determined as 82%. Also, in series [4], the result was Active.
